Laboratory results: patent publication US20190119200A1, “TERTIARY AMIDES AND METHOD OF USE” (AbbVie Inc., priority 2016, published 2019)

What was measured:
[1] = biological target: T1, LPAR1 (Homo sapiens, UniProt Q92633); test: LPAR1 Arrestin Assay (arrestin reporter assay); assay type: cell-based; details: U2OS cells stably expressing the LPAR1 receptor, 200 nM 18:1 LPA (EC80); for Emax: read-out: Maximum Inhibition
T1 construct: host or cells: U2OS
Description: One day prior to the experiment, frozen U2OS cells stably expressing the LPAR1 receptor (Life Technologies, Grand Island, N.Y., #K1519A) were thawed, centrifuged at 1,000 rpm for 5 minutes to remove DMSO, and resuspended in FreeStyle™ media (Gibco, Grand Island, N.Y.). Forty microliters of cells were plated into PDL-coated 384-well plates (Greiner Bio-One, Monroe, N.C.) at 10,000 cells/well, and then the plates were incubated overnight in humidified 5% CO2 at 37° C. Test compounds were dissolved in DMSO, and 12-point, 1:3 dilution CRCs were prepared in duplicate; daughter plates were prepared by aliquoting 0.8 μL/well of test compound dilutions into 384-well plates. On the day of the assay, the daughter plates were diluted to 6× stocks using HEPES-buffered HBSS, then 10 μL of 6× test compounds were added to the cells, and the plates were incubated at 37° C. for one hour. After this 1 hour incubation, 10 μL of a 6× stock of the LPAR1 agonist, 18:1 LPA (Avanti Polar Lipids, Alabaster, Ala.), was prepared in HEPES-buffered HBSS+0.1% fatty acid-free BSA (Sigma, St. Louis, Mo.). The 6×LPA was added to all wells for a final concentration of 200 nM, which corresponds to the 18:1 LPA EC80 in this arrestin assay. The final DMSO concentration in the assay plate was 0.1%, and the final BSA concentration was 0.02%. After addition of LPA to all wells, the assay plates were incubated in humidified 5% CO2 at 37° C. for five hours. During the incubation period, 6× dye from the LiveBLAzer™-FRET B/G with CCF4-AM kit (Life Technologies, Grand Island, N.Y.) was prepared according to manufacturers' instructions. At the end of the 5 hour compound incubation, 10 μL of 6× dye was added to each well, and the assay plate was incubated for two hours in the dark at room temperature. Throughout the assay procedure, all volume additions were performed with a Biomek® NX liquid handler (Beckman Coulter, Indianapolis, Ind.). After the 2 hour dye-load, fluorescence was measured on an EnVision® Multilabel Plate Reader (Perkin Elmer, Waltham, Mass.) with an excitation filter at 409/20 nm and emission filters at 460/40 nm and 530/30 nm. Data processing was performed as recommended by the LiveBLAzer™-FRET B/G with CCF4-AM kit manual; all test compound CRCs were performed in duplicate with n≥3.

[2] = biological target: T1, LPAR1; test: IP-One HTRF Assay; assay type: cell-based; details: U2OS cells stably expressing LPAR1, LPA stimulation, IP-One Tb HTRF kit; for Emax: read-out: Maximum Inhibition
Description: U2OS cells stably expressing LPAR1 (Life Technologies #K1519A) were plated at 20000 cells/well in growth medium (McCoy's 5A(Life Technologies #16600-082)) with 10% dFBS (Life Technologies #26400-036), 0.1 mM non-essential amino acids, 25 mM HEPES, 1 mM sodium pyruvate, 1% penicillin/streptomycin, 50 μg/mL hygromycin, and 100 μg/mL Geneticin® in tissue culture treated 384-well white plates (Greiner #781080) in humidified 5% CO2 at 37° C. overnight. On the day of the assay, culture medium was replaced with 30 μL/well of McCoy's 5A with 0.1% BSA. Cells were incubated in humidified 5% CO2 at 37° C. for 3 more hours. Compounds were 3-fold serial diluted from 2 mM for 11-points using dimethyl sulfoxide. 1 μL of compound in DMSO was diluted in 50 μL stimulation buffer from an IP-One Tb HTRF kit (Cisbio #62IPAPEB) immediately before assay. 15 μL/well of 1.33× compound in stimulation buffer was added to cells after removal of culture medium. After 20 minutes of incubation at 37° C., 5 μL/well of 8 μM LPA diluted in stimulation buffer with 0.1% fatty acid free BSA was added to cells. […]. To EC100 wells were added 4×20 μM LPA. To the cells were added 5 μL/well IP1-d2 conjugate and 5 μLwell IP1-K antibody after 2 hours of incubation at 37° C. Cells were incubated at room temperature for 1 hour (protected from light). The plate was then read at 665 nm and 615 nm using an EnVision® Multilabel Plate Reader. IC50 values were calculated from curve fits of the ratio data using a four-parameter logistic Hill equation (Assay Explorer 3.3 Client).

T1 sequence (Q92633 whole entry): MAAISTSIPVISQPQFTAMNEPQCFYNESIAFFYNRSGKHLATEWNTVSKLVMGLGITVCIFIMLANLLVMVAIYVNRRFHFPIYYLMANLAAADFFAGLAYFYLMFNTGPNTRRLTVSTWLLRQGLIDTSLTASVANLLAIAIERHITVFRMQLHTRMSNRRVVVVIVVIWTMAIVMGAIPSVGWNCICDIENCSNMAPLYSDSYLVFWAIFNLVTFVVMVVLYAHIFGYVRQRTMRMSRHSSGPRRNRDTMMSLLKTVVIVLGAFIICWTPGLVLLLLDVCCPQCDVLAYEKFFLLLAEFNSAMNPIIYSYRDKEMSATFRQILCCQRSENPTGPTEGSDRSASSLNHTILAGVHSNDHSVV

| SMILES | IC50 [1] | Emax [1] | IC50 [2] | Emax [2] |
| --- | --- | --- | --- | --- |
| COc1cc(C(=O)N(CCCc2ccccc2)CCC[C@@H](C)C(=O)O)cc(OC)c1C (single isomer, unassigned) [Example 77] | 5 nM | 102% | 77 nM | 84% |
| COc1cc(C(=O)N(CCCc2ccccc2)CC(=O)NC2(C(=O)O)CC2)cc(OC)c1C [Example 3, 1-{[N-(3,5-dimethoxy-4-methylbenzoyl)-N-(3-phenylpropyl)glycyl]amino}cyclopropane-1-carboxylic Acid] | 2230 nM | 110% | 4270 nM | 76% |
| COc1cc(C(=O)N(CCCCC(=O)O)CCCc2ccccc2)cc(OC)c1C [Example 4, 5-[(3,5-dimethoxy-4-methylbenzoyl)(3-phenylpropyl)amino]pentanoic Acid] | 27 nM | 101% | 115 nM | 93% |
| COc1cc(C(=O)N(CCCc2ccccc2)CCOCC(=O)O)cc(OC)c1C [Example 6, {2-[(3,5-dimethoxy-4-methylbenzoyl)(3-phenylpropyl)amino]ethoxy}acetic Acid] | 126 nM | 130% | 183 nM | 97% |
| COc1cc(OC)cc(C(=O)N(CCCCC(=O)O)CCCc2ccccc2)c1 [Example 7, 5-[(3,5-dimethoxybenzoyl)(3-phenylpropyl)amino]pentanoic Acid] | 713 nM | 108% | 1750 nM | 75% |
| COc1ccc(C2(C(=O)N(CCCCC(=O)O)CCCc3ccccc3)CC2)cc1 [Example 8, 5-{[1-(4-methoxyphenyl)cyclopropane-1-carbonyl](3-phenylpropyl)amino}pentanoic Acid] | 691 nM | 112% | 2250 nM | 84% |
| COc1cc(C(=O)N(CCCCC(=O)O)CCCc2ccccc2)cc(OC)c1OC [Example 10, 5-[(3-phenylpropyl)(3,4,5-trimethoxybenzoyl)amino]pentanoic Acid] | 674 nM | 114% | 333 nM | 77% |
| COc1cc(C(=O)N(CCCCC(=O)O)CCCc2ccccc2)cc(OC)c1Br [Example 20, 5-[(4-bromo-3,5-dimethoxybenzoyl)(3-phenylpropyl)amino]pentanoic Acid] | 43 nM | 101% | 50 nM | 102% |
| COc1cc(C(=O)N(CCCCC(=O)O)CCCc2ccccc2F)cc(OC)c1C [Example 32, 5-{(3,5-dimethoxy-4-methylbenzoyl)[3-(2-fluorophenyl)propyl]amino}pentanoic Acid] | 76 nM | 112% | 321 nM | 88% |
| COc1cc(C(=O)N(CCCCC(=O)O)CCCc2cccc(F)c2)cc(OC)c1C [Example 33, 5-{(3,5-dimethoxy-4-methylbenzoyl)[3-(3-fluorophenyl)propyl]amino}pentanoic Acid] | 71 nM | 110% | 166 nM | 76% |
| COc1cc(C(=O)N(CCCCC(=O)O)CCCc2ccc(F)cc2)cc(OC)c1C [Example 34, 5-{(3,5-dimethoxy-4-methylbenzoyl)[3-(4-fluorophenyl)propyl]amino}pentanoic Acid] | 391 nM | 115% | 880 nM | 70% |
| COc1cc(C(=O)N(CCCCC(=O)O)CCCc2ccccc2)cc(OC)c1C1CC1 [Example 35, 5-[(4-cyclopropyl-3,5-dimethoxybenzoyl)(3-phenylpropyl)amino]pentanoic Acid] | 13 nM | 103% | 59 nM | 94% |
| COc1cc(C(=O)N(CCCCC(=O)O)CCCc2ccccc2)cc(OC)c1C(F)(F)F [Example 37, 5-{[3,5-dimethoxy-4-(trifluoromethyl)benzoyl](3-phenylpropyl)amino}pentanoic Acid] | 231 nM | 122% | 69 nM | 79% |
